Experimental data taken from PubChem BioAssay (NCI).
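Test compounds were applied to cells in 96-well plates for 48 hours at 5 doses. TGI is the concentration that stops growth completely.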

Key:
Assay in all cases: DTP human tumour cell line panel, 48 h
SK-MEL-28 melanoma = system: SK-MEL-28 melanoma
COLO 205 colon = system: COLO 205 colon
NCI-H460 lung = system: NCI-H460 lung
UACC-257 melanoma = system: UACC-257 melanoma
SN12C renal = system: SN12C renal
HOP-62 NSCLC = system: HOP-62 NSCLC
HCC-2998 colon = system: HCC-2998 colon
HL-60(TB) leukemia = system: HL-60(TB) leukemia
NCI-H23 lung = system: NCI-H23 lung
DU-145 prostate = system: DU-145 prostate
SF-268 CNS = system: SF-268 CNS
OVCAR-8 ovarian = system: OVCAR-8 ovarian
HS 578T breast = system: HS 578T breast
LOX IMVI melanoma = system: LOX IMVI melanoma
SNB-19 CNS = system: SNB-19 CNS
SK-MEL-5 melanoma = system: SK-MEL-5 melanoma
MDA-MB-435 = system: MDA-MB-435
SNB-75 CNS = system: SNB-75 CNS
HT29 colon = system: HT29 colon
CCRF-CEM leukemia = system: CCRF-CEM leukemia
MOLT-4 leukemia = system: MOLT-4 leukemia
RPMI-8226 leukemia = system: RPMI-8226 leukemia
SR leukemia = system: SR leukemia
NCI-H226 lung = system: NCI-H226 lung
ACHN renal = system: ACHN renal
SW-620 colon = system: SW-620 colon
KM12 colon = system: KM12 colon
BT-549 breast = system: BT-549 breast
MDA-N = system: MDA-N
HCT-15 colon = system: HCT-15 colon
RXF 393 renal = system: RXF 393 renal
SF-295 CNS = system: SF-295 CNS
PC-3 prostate = system: PC-3 prostate
EKVX NSCLC = system: EKVX NSCLC
CAKI-1 renal = system: CAKI-1 renal
OVCAR-4 ovarian = system: OVCAR-4 ovarian
A498 renal = system: A498 renal
OVCAR-5 ovarian = system: OVCAR-5 ovarian
MDA-MB-231 breast = system: MDA-MB-231 breast
K-562 leukemia = system: K-562 leukemia
NCI/ADR-RES ovarian = system: NCI/ADR-RES ovarian
U251 CNS = system: U251 CNS
MCF7 breast = system: MCF7 breast
HCT-116 colon = system: HCT-116 colon
786-0 renal = system: 786-0 renal
IGROV1 ovarian = system: IGROV1 ovarian
UO-31 renal = system: UO-31 renal
OVCAR-3 ovarian = system: OVCAR-3 ovarian
HOP-92 NSCLC = system: HOP-92 NSCLC
A549 NSCLC = system: A549 NSCLC
SF-539 CNS = system: SF-539 CNS
NCI-H522 lung = system: NCI-H522 lung
TK-10 renal = system: TK-10 renal
M14 melanoma = system: M14 melanoma
SK-OV-3 ovarian = system: SK-OV-3 ovarian
MALME-3M melanoma = system: MALME-3M melanoma
SK-MEL-2 melanoma = system: SK-MEL-2 melanoma

O=[N+]([O-])c1ccc2c(c1)Sc1ccccc1N2CCCCCl
TGI (SK-MEL-28 melanoma): > 100 µM | TGI (COLO 205 colon): > 100 µM | TGI (NCI-H460 lung): > 100 µM | TGI (UACC-257 melanoma): > 100 µM | TGI (SN12C renal): > 100 µM | TGI (HOP-62 NSCLC): > 100 µM | TGI (HCC-2998 colon): > 100 µM | TGI (HL-60(TB) leukemia): > 100 µM | TGI (NCI-H23 lung): > 100 µM | TGI (DU-145 prostate): > 100 µM | TGI (SF-268 CNS): > 100 µM | TGI (OVCAR-8 ovarian): > 100 µM | TGI (HS 578T breast): > 100 µM | TGI (LOX IMVI melanoma): > 100 µM | TGI (SNB-19 CNS): > 100 µM | TGI (SK-MEL-5 melanoma): > 100 µM | TGI (MDA-MB-435): > 100 µM | TGI (SNB-75 CNS): > 100 µM | TGI (HT29 colon): > 100 µM | TGI (CCRF-CEM leukemia): > 100 µM | TGI (MOLT-4 leukemia): > 100 µM | TGI (RPMI-8226 leukemia): > 100 µM | TGI (SR leukemia): > 100 µM | TGI (NCI-H226 lung): > 100 µM | TGI (ACHN renal): > 100 µM | TGI (SW-620 colon): > 100 µM | TGI (KM12 colon): > 100 µM | TGI (BT-549 breast): > 100 µM | TGI (MDA-N): > 100 µM | TGI (HCT-15 colon): > 100 µM | TGI (RXF 393 renal): > 100 µM | TGI (SF-295 CNS): > 100 µM | TGI (PC-3 prostate): > 100 µM | TGI (EKVX NSCLC): > 100 µM | TGI (CAKI-1 renal): > 100 µM | TGI (OVCAR-4 ovarian): > 100 µM | TGI (A498 renal): > 100 µM | TGI (OVCAR-5 ovarian): > 100 µM | TGI (MDA-MB-231 breast): > 100 µM | TGI (K-562 leukemia): > 100 µM | TGI (NCI/ADR-RES ovarian): > 100 µM | TGI (U251 CNS): > 100 µM | TGI (MCF7 breast): > 100 µM | TGI (HCT-116 colon): > 100 µM | TGI (786-0 renal): > 100 µM | TGI (IGROV1 ovarian): > 100 µM | TGI (UO-31 renal): > 100 µM | TGI (OVCAR-3 ovarian): > 100 µM | TGI (HOP-92 NSCLC): > 100 µM | TGI (A549 NSCLC): > 100 µM | TGI (SF-539 CNS): > 100 µM | TGI (NCI-H522 lung): > 100 µM | TGI (TK-10 renal): > 100 µM

COc1nc(N)c(C#N)c(C#N)c1C#N
TGI (SK-MEL-28 melanoma): > 10 µM | TGI (COLO 205 colon): > 10 µM | TGI (UACC-257 melanoma): > 10 µM | TGI (SN12C renal): > 10 µM | TGI (HOP-62 NSCLC): > 10 µM | TGI (HCC-2998 colon): > 10 µM | TGI (HL-60(TB) leukemia): > 10 µM | TGI (NCI-H23 lung): > 10 µM | TGI (M14 melanoma): > 10 µM | TGI (DU-145 prostate): > 10 µM | TGI (SF-268 CNS): > 10 µM | TGI (OVCAR-8 ovarian): > 10 µM | TGI (HS 578T breast): > 10 µM | TGI (LOX IMVI melanoma): > 10 µM | TGI (SNB-19 CNS): > 10 µM | TGI (SK-MEL-5 melanoma): > 10 µM | TGI (MDA-MB-435): > 10 µM | TGI (SNB-75 CNS): > 10 µM | TGI (HT29 colon): > 10 µM | TGI (MOLT-4 leukemia): > 10 µM | TGI (RPMI-8226 leukemia): > 10 µM | TGI (SR leukemia): > 10 µM | TGI (ACHN renal): > 10 µM | TGI (SW-620 colon): > 10 µM | TGI (KM12 colon): > 10 µM | TGI (BT-549 breast): > 10 µM | TGI (MDA-N): > 10 µM | TGI (SK-OV-3 ovarian): > 10 µM | TGI (HCT-15 colon): > 10 µM | TGI (SF-295 CNS): > 10 µM | TGI (MALME-3M melanoma): > 10 µM | TGI (PC-3 prostate): > 10 µM | TGI (CAKI-1 renal): > 10 µM | TGI (OVCAR-4 ovarian): > 10 µM | TGI (OVCAR-5 ovarian): > 10 µM | TGI (MDA-MB-231 breast): > 10 µM | TGI (K-562 leukemia): > 10 µM | TGI (NCI/ADR-RES ovarian): > 10 µM | TGI (U251 CNS): > 10 µM | TGI (MCF7 breast): > 10 µM | TGI (HCT-116 colon): > 10 µM | TGI (786-0 renal): > 10 µM | TGI (OVCAR-3 ovarian): > 10 µM | TGI (HOP-92 NSCLC): > 10 µM | TGI (A549 NSCLC): > 10 µM | TGI (SF-539 CNS): > 10 µM | TGI (NCI-H522 lung): > 10 µM | TGI (TK-10 renal): > 10 µM

CC(=O)O[C@H]1CC2C(C3CCC(C(C)CCC(=O)O)[C@]31C)[C@H](OC(C)=O)C[C@@H]1CC3(CC[C@]21C)OOC1(CC[C@]2(C)C4C[C@H](OC(C)=O)[C@]5(C)C(C(C)CCC(=O)O)CCC5C4[C@H](OC(C)=O)C[C@@H]2C1)OO3 (some centres not stated)
TGI (SK-MEL-28 melanoma): > 100 µM | TGI (COLO 205 colon): 4.24 µM | TGI (UACC-257 melanoma): 4.68 µM | TGI (SN12C renal): 6.02 µM | TGI (HOP-62 NSCLC): 3.97 µM | TGI (HCC-2998 colon): 3.8 µM | TGI (HL-60(TB) leukemia): 3.65 µM | TGI (NCI-H23 lung): 4.08 µM | TGI (M14 melanoma): 8.31 µM | TGI (DU-145 prostate): 4.48 µM | TGI (SF-268 CNS): 4.01 µM | TGI (OVCAR-8 ovarian): 4.97 µM | TGI (HS 578T breast): 4.1 µM | TGI (LOX IMVI melanoma): 3.11 µM | TGI (SNB-19 CNS): > 100 µM | TGI (SK-MEL-5 melanoma): 3.11 µM | TGI (MDA-MB-435): 4.31 µM | TGI (HT29 colon): > 100 µM | TGI (CCRF-CEM leukemia): 9.87 µM | TGI (MOLT-4 leukemia): 13.1 µM | TGI (RPMI-8226 leukemia): 14.7 µM | TGI (SR leukemia): 9.55 µM | TGI (NCI-H226 lung): 4.21 µM | TGI (ACHN renal): 3.44 µM | TGI (SW-620 colon): > 100 µM | TGI (KM12 colon): 3.17 µM | TGI (BT-549 breast): 4.11 µM | TGI (MDA-N): 5.91 µM | TGI (SK-OV-3 ovarian): 11.6 µM | TGI (HCT-15 colon): 6.39 µM | TGI (SF-295 CNS): 4.72 µM | TGI (MALME-3M melanoma): 3.13 µM | TGI (PC-3 prostate): 3.85 µM | TGI (EKVX NSCLC): 9.67 µM | TGI (CAKI-1 renal): 5.15 µM | TGI (OVCAR-4 ovarian): 9.84 µM | TGI (OVCAR-5 ovarian): 3.5 µM | TGI (MDA-MB-231 breast): 3.85 µM | TGI (K-562 leukemia): > 100 µM | TGI (NCI/ADR-RES ovarian): 26.7 µM | TGI (U251 CNS): 2.59 µM | TGI (MCF7 breast): 12.3 µM | TGI (HCT-116 colon): 3.85 µM | TGI (786-0 renal): 9.32 µM | TGI (IGROV1 ovarian): 4.25 µM | TGI (UO-31 renal): 3.32 µM | TGI (OVCAR-3 ovarian): 3.53 µM | TGI (SK-MEL-2 melanoma): 3.64 µM | TGI (A549 NSCLC): 5.19 µM | TGI (NCI-H522 lung): 3.03 µM | TGI (TK-10 renal): 6.8 µM
